Measurements: patent US6452005B1, “JAK-3 inhibitors for treating allergic disorders” (Parker Hughes Institute, priority 1999, dated 2002)

What was measured:
RBL-2H3 mast cells = assay: IgE/antigen-induced activation (cell spreading, microtubule organization) by confocal microscopy; format: cell-based, rat; conditions: 30 μM, two hour incubation
Experimental: RBL-2H3 cells were cultured overnight on 22×22 mm coverslips at a cell density of 0.01×10^6/ml with […] DNP-IgE. Sensitized RBL-2H3 cells were then treated with 30 μM WHI-P131, vehicle, or control compounds WHI-P258 and WHI-P112 prior to challenge with DNP-BSA, as described in the legend of FIG. 4. After stimulation with DNP-BSA for 1 hour, cells were fixed in cold methanol for 15 minutes followed by permeabilization with PBS containing 0.1% Triton X-100. […] After washing 3 times with PBS-0.1% Triton X-100, cells were incubated with fluorescein labeled secondary antibody (Zymed, San Francisco, Calif.) for another 40 minutes. Cells were washed three times to remove unbound antibody. DNA labeling was performed by incubation of coverslips with toto-3 (Molecular Probes, Eugene, Oreg.) for 10 minutes. Excessive dye was washed with PBS-0.1% Triton X-100. Cells were visualized under MRC 1024 Laser Scanning Microscope after mounting with Vectashield (Vector laboratories, Inc, Burlingame, Calif.), as previously reported.
Confocol Microscopy: Staining of mast cells with primary and secondary antibodies followed by confocal laser scanning microscopy was performed as previously described in detail (Uckun et. al., 1998, Clin. Cancer Res., 4:901-912). After staining with appropriate primary and secondary antibodies, cells were washed three times to remove unbound antibody. DNA labeling was performed by incubation of coverslips with toto-3 (Molecular Probes, Eugene, Oreg.) for 10 min. Excessive dye was washed with PBS-0.1% triton X-100. Cells were visualized under MRC 1024 Laser Scanning Microscope after mounting with Vectashield (Vector laboratories, Inc, Burlingame, Calif.).
In a systematic effort aimed at elucidating the biologic consequences of JAK3 inhibition in mast cells, we first sought to determine if the JAK3 inhibitor WHI-P131 could prevent the IgE receptor/FcεRI-mediated activation of mast cells. Since the IgE receptor/FcεRI-mediated activation of mast cells results in a distinct morphologic transformation with marked cell spreading due to membrane ruffling, microtubule formation and actin polymerization (Apgar, 1997), we evaluated the effects of WHI-P131 on the activation-associated transformation of shape and surface topography of RBL-2H3 mast cells using confocal laser scanning microscopy (Ghosh et. al., 1998).

BALB/c mice = assay: Passive cutaneous anaphylaxis model; format: in vivo; conditions: 25 mg/kg i.p. dose level
Experimental: FIG. 14A is a graph showing the effects of WHI-P131 on anaphylaxis-associated vascular hyperpermeability, examined by evaluating the cutaneous extravasation of albumin-bound Evans blue dye in mice (n=12). The plasma exudation indices were determined for vehicle treated as well as WHI-P131 treated mice, as described in the Examples. To study the effect of WHI-P131 on anaphylaxis, IgE sensitized mice were injected with two consecutive doses of 10 or 25 mg/kg WHI-P131 at 90 minutes before and 30 minutes before the antigen challenge, respectively. Mice were then challenged with 100 μg DNP-BSA in 2% Evans blue dye and the plasma exudation indices were determined. […] The data are expressed as plasma exudation index (times increase in optical density over PBS treated ears. The mean OD (at 620 nm) of vehicle treated ears was 0.22±0.04 before and 0.918±0.05 after the IgE/antigen challenge. *p<0.05 compared to vehicle treated controls.
After 20 hours, mice were treated with WHI-P131 (10 or 25 mg/kg i.p.) twice at 1 hour intervals prior to the antigen challenge. […] For quantitation of Evans blue dye extravasation as a measure of anaphylaxis-associated vascular hyperpermeability, 8 mm skin specimens were removed from the ears of mice, minced in 2 ml formamide and incubated at 80° C. for 2 hours in water bath to extract the dye. The absorbance was read at 620 nm. […]

COc1cc2ncnc(Nc3ccc(O)cc3)c2cc1OC [WHI-P131, 4-(4′-Hydroxylphenyl)-amino-6,7-dimethoxyquinazoline]
IgE/antigen-induced mast cell activation (spreading and microtubule organization) (RBL-2H3 mast cells): prevented | cells spindle shaped after IgE/antigen (RBL-2H3 mast cells): 58% | cells flattened after IgE/antigen (RBL-2H3 mast cells; 93% without drug): 23% | inhibition of IgE/antigen induced plasma exudation (Evans blue extravasation) (BALB/c mice): 70%
